PMC3026091 (Antiviral research, 2010)

Tests used:
[1] = target: T1, Bovine pancreatic trypsin (Bos taurus, UniProt P00760); assay: Steady-state kinetics of inhibitors of trypsin; assay type: biochemical; details: BOC-GRR-AMC fluorogenic substrate; for Mechanism (trypsin): mechanism of trypsin inhibition
T1 sequence (P00760 24-246): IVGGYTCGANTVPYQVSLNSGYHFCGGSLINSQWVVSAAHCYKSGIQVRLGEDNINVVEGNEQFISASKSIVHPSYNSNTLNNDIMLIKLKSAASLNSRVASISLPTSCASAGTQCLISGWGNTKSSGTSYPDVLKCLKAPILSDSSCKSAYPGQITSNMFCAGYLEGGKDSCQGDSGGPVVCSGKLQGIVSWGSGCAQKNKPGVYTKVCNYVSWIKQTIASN

[2] = target: T1, Bovine pancreatic trypsin; assay: Trypsin inhibition assay with chromogenic BAPNA substrate; assay type: biochemical; details: analog 100 µM, trypsin 60 µM, BAPNA 500 µM; data not shown
[3] = system: DEN2V NS2B-NS3pro; assay type: biochemical, dengue 2 virus (strain TSV01); details: mechanism of inhibition of DEN2V NS2B-NS3pro, Dynafit model selection

With `O=C1c2c(O)ccc([N+](=O)[O-])c2C(=O)c2c([N+](=O)[O-])ccc(O)c21` [ARDP0006] the “Mechanism (trypsin)” value [1] was “uncompetitive trypsin inhibitor”, the Ki ([1]; read-out: Ki2 trypsin, 50 nM trypsin) was 13 ± 0.1 µM and the “Inhibition of trypsin cleavage of the chromogenic substrate BAPNA” value [2] was “inhibited trypsin cleavage of the fluorogenic substrate but not the chromogenic substrate”. The Mechanism [3] was “competitive inhibition model”.
`N=C(N)c1ccccc1` [Benzamidine, reference compound] was tested, and the “Mechanism (trypsin)” value [1] was “Competitive”.
